Experimental findings from ChEMBL document CHEMBL1133267, “The total synthesis of piclavines A1-4 and their biological evaluation” (Bioorg Med Chem Lett, 2000) are described below.

Structures are written as SMILES. In brackets after ≈: the same amount, converted by molar mass. Activity calls are given as the source filed them. No cut-off for these calls is given here.

For assay [1], the system named is Candida albicans. The assay is described as follows: Compound was evaluated for inhibitory activity on Candida albicans; active. It counts as functional, organism-based.
Assay [2] has as its system Influenza A virus. The assay is described as follows: Compound was evaluated for antiviral activity against Influenza virus A/PR/8. The format is functional, organism-based.
For assay [3], the system named is MDCK. The assay is described as follows: Compound was evaluated for inhibition of MDCK cell growth. The conditions noted are these: Canis lupus familiaris. It counts as functional.
Assay [4] concerns Vero. The assay can be described thus: Compound was evaluated for inhibition of cell growth of Vero cells. The format is functional. The conditions noted are these: Chlorocebus sabaeus.
In assay [5] the test system is Human alphaherpesvirus 1. The assay can be described thus: Compound was evaluated for antiviral activity against Herpes simplex virus type 1; ND means Not detected owing to toxicity. It counts as functional, organism-based.
Assay [6] concerns Streptococcus pneumoniae. The assay can be described thus: Compound was evaluated for antibacterial activity against Streptococcus pneumoniae; weak activity. It counts as functional, organism-based.
Assay [7] relates to Streptococcus pneumoniae. The assay can be described thus: Compound was evaluated for antibacterial activity against Streptococcus pneumoniae; IA means Inactive. The format is functional, organism-based.

The IC50 is the concentration at which inhibition is half-maximal. The low end stands for higher potency, the high end for lower potency. One may read the CC50 as the concentration giving 50% cytotoxicity. Read a low CC50 as harm at low concentration. For `CCCCCCC/C=C\C[C@H]1CCC[C@@H]2CCCN21`, in assay [1], the result was Active. Besides, the figures for the IC50 in assay [2] and in assay [5] were 3.72 µg/mL (≈ 14.1 µM) and “Not detected”, respectively. The CC50 turned out to be 9.28 µg/mL (≈ 35.2 µM) in assay [3] and 7.67 µg/mL (≈ 29.1 µM) in assay [4]. For the same compound, in assay [6], the Activity entry is “weak activity”.

Take `CCCCCCC/C=C/C[C@H]1CCC[C@@H]2CCCN21`: the IC50 in assay [2] was 4.84 µg/mL (≈ 18.4 µM); in assay [5] it was “Not detected”. Moreover, the results for the CC50 in assay [3] and in assay [4] were 8.92 µg/mL (≈ 33.9 µM) and 9.18 µg/mL (≈ 34.8 µM), respectively. The Activity entry in assay [6] was “weak activity”.

Turning to `CCCCCCC/C=C/C[C@@H]1CCC[C@@H]2CCCN21`, the concentration for half-maximal inhibition (IC50) was 1.45 µg/mL (≈ 5.5 µM) in assay [2] and “Not detected” in assay [5]. The CC50 came out at 20.1 µg/mL (≈ 76.3 µM) in assay [3] and 42.3 µg/mL (≈ 161 µM) in assay [4]. The outcome in assay [7] was inactive.

Consider `CCCCCCC/C=C\C[C@@H]1CCC[C@@H]2CCCN21`, for which the IC50 in assay [2] is 4.2 µg/mL (≈ 15.9 µM); in assay [5], “Not detected”. Moreover, the CC50 in assay [3] stood at 17.1 µg/mL (≈ 64.9 µM); in assay [4], 40.9 µg/mL (≈ 155 µM). Also, the outcome in assay [7] was inactive.
